# The source made the active and inactive calls. No cut-off for these calls is given here.
# Legend:
# [1] = target: T1, Protein cereblon/Androgen receptor (Homo sapiens, UniProt P10275+Q96SW2); test: PROTAC activity at CRBN/AR in human 22Rv1 cells assessed as induction of AR degradation at 0.1 uM incubated for 24 hrs by Western blot analysis relative to control; format: cell-based
# Target sequence in this assay (P10275 whole entry, looked up, canonical isoform): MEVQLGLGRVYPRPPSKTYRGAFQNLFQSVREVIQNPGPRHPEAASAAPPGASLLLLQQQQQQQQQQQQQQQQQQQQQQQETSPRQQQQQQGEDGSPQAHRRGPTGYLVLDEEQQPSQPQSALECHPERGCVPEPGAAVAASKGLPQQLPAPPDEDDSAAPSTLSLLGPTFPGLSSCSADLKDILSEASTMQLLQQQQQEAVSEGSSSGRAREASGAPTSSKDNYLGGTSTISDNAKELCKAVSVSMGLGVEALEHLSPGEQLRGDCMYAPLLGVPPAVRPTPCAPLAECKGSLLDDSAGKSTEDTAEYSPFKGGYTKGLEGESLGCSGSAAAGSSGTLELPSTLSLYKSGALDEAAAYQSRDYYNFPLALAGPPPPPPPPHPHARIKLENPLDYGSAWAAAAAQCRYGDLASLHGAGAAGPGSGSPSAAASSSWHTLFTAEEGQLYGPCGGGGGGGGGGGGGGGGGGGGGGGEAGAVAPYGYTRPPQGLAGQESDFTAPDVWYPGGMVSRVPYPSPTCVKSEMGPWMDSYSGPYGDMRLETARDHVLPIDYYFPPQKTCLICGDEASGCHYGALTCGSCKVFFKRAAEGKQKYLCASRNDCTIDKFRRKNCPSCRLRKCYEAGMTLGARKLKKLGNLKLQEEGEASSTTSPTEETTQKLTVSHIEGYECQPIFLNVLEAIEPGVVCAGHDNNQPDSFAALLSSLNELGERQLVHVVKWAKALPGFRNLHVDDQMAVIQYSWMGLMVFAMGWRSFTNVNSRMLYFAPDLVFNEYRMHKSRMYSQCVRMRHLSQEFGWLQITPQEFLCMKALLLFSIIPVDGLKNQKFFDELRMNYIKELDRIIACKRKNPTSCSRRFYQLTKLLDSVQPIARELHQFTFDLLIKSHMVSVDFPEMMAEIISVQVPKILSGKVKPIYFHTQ
# Target sequence in this assay (Q96SW2 whole entry, looked up, canonical isoform): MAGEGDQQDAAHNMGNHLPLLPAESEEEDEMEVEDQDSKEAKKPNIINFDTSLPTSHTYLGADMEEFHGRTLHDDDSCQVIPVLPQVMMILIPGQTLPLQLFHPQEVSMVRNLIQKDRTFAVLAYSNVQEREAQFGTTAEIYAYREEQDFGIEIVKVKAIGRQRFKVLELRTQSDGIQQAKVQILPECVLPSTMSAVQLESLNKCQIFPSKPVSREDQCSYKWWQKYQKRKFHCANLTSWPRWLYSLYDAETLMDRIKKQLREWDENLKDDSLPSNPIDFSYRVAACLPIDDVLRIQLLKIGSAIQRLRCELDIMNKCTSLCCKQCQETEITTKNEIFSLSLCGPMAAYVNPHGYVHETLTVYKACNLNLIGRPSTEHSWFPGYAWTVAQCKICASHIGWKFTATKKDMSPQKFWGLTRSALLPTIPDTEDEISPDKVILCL
# [2] = system: Protein cereblon/Androgen receptor (Homo sapiens), P10275+Q96SW2 [UNDEFINED MUTATION]; test: PROTAC activity at CRBN/Androgen receptor splice variant 7 in human 22Rv1 cells assessed as induction of AR-V7 degradation at 0.01 uM incubated for 24 hrs by Western blot analysis relative to control; format: cell-based
# Protein cereblon/Androgen receptor (Homo sapiens), P10275+Q96SW2 [UNDEFINED MUTATION], sequence (P10275 whole entry, looked up, change not shown, canonical isoform): as the sequence (P10275 whole entry, looked up, canonical isoform) above
# Protein cereblon/Androgen receptor (Homo sapiens), P10275+Q96SW2 [UNDEFINED MUTATION], sequence (Q96SW2 whole entry, looked up, change not shown, canonical isoform): as the sequence (Q96SW2 whole entry, looked up, canonical isoform) above
# [3] = system: Protein cereblon/Androgen receptor (Homo sapiens), P10275+Q96SW2 [UNDEFINED MUTATION]; test: PROTAC activity at CRBN/Androgen receptor splice variant 7 in human VCaP cells assessed as induction of AR-V7 degradation at 0.01 uM incubated for 24 hrs by Western blot analysis relative to control; format: cell-based
# [4] = target: T1, Protein cereblon/Androgen receptor; test: PROTAC activity at CRBN/AR in human 22Rv1 cells assessed as induction of AR degradation at 20 nM incubated for 36 hrs by Western blot analysis (reference value: 0 %); format: cell-based
# Target sequence in this assay (P10275 whole entry, looked up, canonical isoform): as the sequence (P10275 whole entry, looked up, canonical isoform) above
# Target sequence in this assay (Q96SW2 whole entry, looked up, canonical isoform): as the sequence (Q96SW2 whole entry, looked up, canonical isoform) above
# [5] = system: Protein cereblon/Androgen receptor (Homo sapiens), P10275+Q96SW2 [UNDEFINED MUTATION]; test: PROTAC activity at CRBN/Androgen receptor splice variant 7 in human 22Rv1 cells assessed as induction of AR-V7 degradation at 20 nM incubated for 6 hrs by Western blot analysis (reference value: 0%); format: cell-based
# [6] = system: Protein cereblon/Androgen receptor (Homo sapiens), P10275+Q96SW2 [UNDEFINED MUTATION]; test: PROTAC activity at CRBN/Androgen receptor splice variant 7 in human 22Rv1 cells assessed as induction of AR-V7 degradation at 20 nM incubated for 24 hrs by Western blot analysis (reference value: 0%); format: cell-based
# [7] = target: T2, Protein cereblon/Eukaryotic peptide chain release factor GTP-binding subunit ERF3A (Homo sapiens, UniProt Q96SW2+P15170); test: Molecular glue activity at CRBN/GSPT1 in human 22Rv1 cells assessed as induction of GSPT1 degradation at 20 nM incubated for 36 hrs by Western blot analysis (reference value: 0 %); format: cell-based
# Target sequence in this assay (P15170 whole entry, looked up): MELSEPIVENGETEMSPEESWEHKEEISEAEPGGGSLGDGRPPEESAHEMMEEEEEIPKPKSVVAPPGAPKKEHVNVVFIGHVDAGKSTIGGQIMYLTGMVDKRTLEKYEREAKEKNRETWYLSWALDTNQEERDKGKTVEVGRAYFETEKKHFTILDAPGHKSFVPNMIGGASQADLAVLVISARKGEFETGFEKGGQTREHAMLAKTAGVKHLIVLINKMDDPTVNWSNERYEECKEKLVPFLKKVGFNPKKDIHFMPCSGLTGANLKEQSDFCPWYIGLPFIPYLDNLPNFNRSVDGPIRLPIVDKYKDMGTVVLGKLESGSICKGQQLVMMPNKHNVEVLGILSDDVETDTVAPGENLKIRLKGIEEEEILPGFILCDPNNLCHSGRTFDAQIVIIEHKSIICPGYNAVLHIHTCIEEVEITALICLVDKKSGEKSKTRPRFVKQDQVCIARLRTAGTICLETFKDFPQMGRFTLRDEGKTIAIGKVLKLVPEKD
# Target sequence in this assay (Q96SW2 whole entry, looked up): as the sequence (Q96SW2 whole entry, looked up, canonical isoform) above
# [8] = target: T1, Protein cereblon/Androgen receptor; test: PROTAC activity at CRBN/AR in human VCaP cells assessed as induction of AR degradation incubated for 24 hrs by Western blot analysis; format: cell-based
# [9] = target: T1, Protein cereblon/Androgen receptor; test: PROTAC activity at CRBN/AR in human LNCaP cells assessed as induction of AR degradation incubated for 24 hrs by Western blot analysis; format: cell-based
# [10] = target: T2, Protein cereblon/Eukaryotic peptide chain release factor GTP-binding subunit ERF3A; test: Molecular glue activity at CRBN/GSPT1 in human LNCaP cells assessed as induction of GSPT1 degradation incubated for 24 hrs by Western blot analysis; format: cell-based
# [11] = system: Protein cereblon/Androgen receptor (Homo sapiens), P10275+Q96SW2 [UNDEFINED MUTATION]; test: PROTAC activity at CRBN/Androgen receptor splice variant 7 in human VCaP cells assessed as induction of AR-V7 degradation at 20 nM by Western blot analysis; format: cell-based; settings: time 1-36 hrs
# [12] = system: Protein cereblon/Androgen receptor (Homo sapiens), P10275+Q96SW2 [UNDEFINED MUTATION]; test: PROTAC activity at CRBN/Androgen receptor splice variant 7 in human 22Rv1 cells assessed as induction of AR-V7 degradation by measuring maximal efficacy incubated for 24 hrs by Western blot analysis relative to control; format: cell-based
# [13] = target: T1, Protein cereblon/Androgen receptor; test: PROTAC activity at CRBN/AR in human VCaP cells assessed as induction of AR degradation by measuring maximal efficacy incubated for 24 hrs by Western blot analysis relative to control; format: cell-based
# Target sequence in this assay (P10275 whole entry, looked up, canonical isoform): as the sequence (P10275 whole entry, looked up, canonical isoform) above
# Target sequence in this assay (Q96SW2 whole entry, looked up, canonical isoform): as the sequence (Q96SW2 whole entry, looked up, canonical isoform) above
# [14] = target: T1, Protein cereblon/Androgen receptor; test: PROTAC activity at CRBN/AR in human LNCaP cells assessed as induction of AR degradation by measuring maximal efficacy incubated for 24 hrs by Western blot analysis relative to control; format: cell-based
# Target sequence in this assay (P10275 whole entry, looked up, canonical isoform): as the sequence (P10275 whole entry, looked up, canonical isoform) above
# Target sequence in this assay (Q96SW2 whole entry, looked up, canonical isoform): as the sequence (Q96SW2 whole entry, looked up, canonical isoform) above
# [15] = target: T2, Protein cereblon/Eukaryotic peptide chain release factor GTP-binding subunit ERF3A; test: Molecular glue activity at CRBN/GSPT1 in human LNCaP cells assessed as induction of GSPT1 degradation by measuring maximal efficacy incubated for 24 hrs by Western blot analysis relative to control; format: cell-based
# Target sequence in this assay (P15170 whole entry, looked up): as the sequence (P15170 whole entry, looked up) above
# Target sequence in this assay (Q96SW2 whole entry, looked up): as the sequence (Q96SW2 whole entry, looked up, canonical isoform) above
# [16] = system: Protein cereblon/Androgen receptor (Homo sapiens), P10275+Q96SW2 [UNDEFINED MUTATION]; test: PROTAC activity at CRBN/Androgen receptor splice variant 7 in human 22Rv1 cells assessed as induction of AR-V7 degradation at […] preincubated with thalidomide followed by compound addition and measured after 12 hrs by Western blot analysis; format: cell-based
# [17] = target: T1, Protein cereblon/Androgen receptor; test: PROTAC activity at CRBN/AR in human 22Rv1 cells assessed as increase in androgen receptor polyubiquitination at 30 nM preincubated with compound for 12 hrs followed by MG132 addition and measured after 12 hrs by immunoprecipitation based Western blot analysis; format: cell-based; settings: time 24.0 hrs
# Target sequence in this assay (P10275 whole entry, looked up, canonical isoform): as the sequence (P10275 whole entry, looked up, canonical isoform) above
# Target sequence in this assay (Q96SW2 whole entry, looked up, canonical isoform): as the sequence (Q96SW2 whole entry, looked up, canonical isoform) above
# [18] = target: Cereblon/Ikaros (Homo sapiens) (UniProt Q96SW2+Q13422); test: Molecular glue activity at CRBN/IKZF1 in human 22Rv1 cells assessed as induction of IKZF1 degradation at 1 uM incubated for 6 hrs by Western blot analysis; format: cell-based
# CWR22R [19] = test: Antiproliferative activity against AR-dependent human 22Rv1 cells assessed as cell growth inhibition incubated for 72 hrs by Celltiter-lumi luminescent cell viability assay; format: functional, cell-based; settings: 22Rv1, 72 h
# CWR22R [20] = test: Upregulation of p53 signaling pathway related gene expression in human 22Rv1 cells at 3 nM incubated for 24 hrs by KEGG enrichment analysis; format: functional, cell-based
# [21] = target: T1, Protein cereblon/Androgen receptor; test: PROTAC activity at CRBN/AR in human LNCaP cells assessed as decrease in FKBP5 mRNA level at 10 to 100 nM incubated for 24 hrs by qRT-PCR analysis; format: cell-based; settings: dose 10-100 nM
# Target sequence in this assay (P10275 whole entry, looked up, canonical isoform): as the sequence (P10275 whole entry, looked up, canonical isoform) above
# Target sequence in this assay (Q96SW2 whole entry, looked up, canonical isoform): as the sequence (Q96SW2 whole entry, looked up, canonical isoform) above
# CWR22R [22] = test: Cell cycle arrest in human 22Rv1 cells assessed as accumulation of cells at G1 phase at 3 nM incubated for 24 hrs by flow cytometric analysis (reference value: 49.7 %); format: functional
# CWR22R [23] = test: Cell cycle arrest in human 22Rv1 cells assessed as accumulation of cells at G1 phase at 30 nM incubated for 24 hrs by flow cytometric analysis (reference value: 49.7 %); format: functional
# CWR22R [24] = test: Induction of apoptosis in human 22Rv1 cells assessed as increase in cleaved caspase-3 expression incubated for 24 hrs by Western blot analysis; format: functional, cell-based; settings: dose 1-30 nM
# CWR22R [25] = test: Induction of apoptosis in human 22Rv1 cells assessed as increase in cleaved PARP expression incubated for 24 hrs by Western blot analysis; format: functional, cell-based; settings: dose 1-30 nM
# [26] = target: T1, Protein cereblon/Androgen receptor; test: PROTAC activity at CRBN/AR in human Enzalutamide-resistant VCaP cells assessed as induction of androgen receptor degradation at 1 to 300 nM by Western blot analysis; format: cell-based; settings: dose 1-300 nM
# [27] = target: T2, Protein cereblon/Eukaryotic peptide chain release factor GTP-binding subunit ERF3A; test: Molecular glue activity at CRBN/GSPT1 in human Enzalutamide-resistant VCaP cells assessed as induction of GSPT1 degradation at 1 to 300 nM by Western blot analysis; format: cell-based; settings: dose 1-300 nM
# Target sequence in this assay (P15170 whole entry, looked up): as the sequence (P15170 whole entry, looked up) above
# Target sequence in this assay (Q96SW2 whole entry, looked up): as the sequence (Q96SW2 whole entry, looked up, canonical isoform) above
# [28] = Clearance in male ICR mouse at 2 mg/kg, iv by LC-MS/MS analysis; format: ADME, organism-based; settings: in vivo
# [29] = Toxicity in male NOD SCID mouse model xenografted with human LNCaP cells assessed as body weight loss at 20 mg/kg, po administered daily for 26 days; format: organism-based; settings: in vivo, 624 h, time 26 day
# [30] = target: T1, Protein cereblon/Androgen receptor; test: In vivo PROTAC activity at CRBN/AR in male NOD SCID mouse model xenografted with human LNCaP cells assessed as reduction in androgen receptor level in tumor at 20 mg/kg, po administered daily for 26 days by Western blot analysis; format: functional, organism-based; settings: time 26.0 day
# Mus musculus = test: In vivo inhibition of AR transcriptional activity in male NOD SCID mouse model xenografted with human LNCaP cells assessed as reduction in PSA level in tumor at 20 mg/kg, po administered daily for 26 days by ELISA; format: functional, organism-based; settings: time 26.0 day
smiles,measurement,setting,value
COc1ccc(C(C)(C)c2cc(Cl)c(OCC3CCN(C(=O)CCCCCNc4ccc5c(c4)C(=O)N(C4CCC(=O)NC4=O)C5=O)CC3)c(C#N)c2)cc1 (centres undefined),Activity,[1],89.9%
same,Activity,[2],65.7%
same,Activity,[3],85.1%
same,Activity,[4],92.1%
same,Activity,[5],20.1%
same,Activity,[6],95.5%
same,Activity,[7],98.5%
same,Activity,[8],Dose-dependent-effect
same,DC50,[8],2 nM
same,Activity,[9],Dose-dependent-effect
same,DC50,[9],15.6 nM
same,Activity,[10],Dose-dependent-effect
same,DC50,[10],0.9 nM
same,Activity,[11],Time-dependent-effect
same,Emax,[12],92.6%
same,Emax,[13],82.5%
same,Emax,[14],78.7%
same,Emax,[15],96.5%
same,Activity,[16],inactive
same,Activity,[17],Active
same,Activity,[18],inactive
same,IC50,CWR22R [19],1.1 nM
same,Activity,CWR22R [20],Active
same,Activity,[21],Active
same,Activity,CWR22R [22],55.6%
same,Activity,CWR22R [23],74.6%
same,Activity,CWR22R [24],Dose-dependent-effect
same,Activity,CWR22R [25],Dose-dependent-effect
same,Activity,[26],Active
same,Activity,[27],Active
same,clearance,[28],18 mL/min/kg
same,Activity,[29],Non-toxic
same,Activity,[30],Active
same,inhibition,Mus musculus,Active; Superior Activity Than Enzalutamide Treatment Group Observed

# From ChEMBL document CHEMBL6177998, “Rational Design of Dual Degraders by Incorporating Molecular Glue Structural Features into PROTAC Degraders” (J Med Chem, 2025)
